Measurements published in ChEMBL document CHEMBL1157833, “Serotonin derivatives as a new class of non-ATP-competitive receptor tyrosine kinase inhibitors” (Bioorg Med Chem, 2010).
Counter-ions that a name gives are not always drawn.

How the values were obtained:
[1] = biological target: T1, Vascular endothelial growth factor receptor 3 (Homo sapiens, UniProt P35916); assay: Inhibition of VEGFR3 after 30 mins by chemiluminescence ELISA
[2] = biological target: T2, Insulin-like growth factor 1 receptor (Homo sapiens, UniProt P08069); assay: Inhibition of IGF1R after 30 mins by chemiluminescence ELISA
[3] = biological target: T3, Vascular endothelial growth factor receptor 2 (Homo sapiens, UniProt P35968); assay: Inhibition of VEGFR2 after 30 mins by chemiluminescence ELISA
T3 sequence (P35968 whole entry): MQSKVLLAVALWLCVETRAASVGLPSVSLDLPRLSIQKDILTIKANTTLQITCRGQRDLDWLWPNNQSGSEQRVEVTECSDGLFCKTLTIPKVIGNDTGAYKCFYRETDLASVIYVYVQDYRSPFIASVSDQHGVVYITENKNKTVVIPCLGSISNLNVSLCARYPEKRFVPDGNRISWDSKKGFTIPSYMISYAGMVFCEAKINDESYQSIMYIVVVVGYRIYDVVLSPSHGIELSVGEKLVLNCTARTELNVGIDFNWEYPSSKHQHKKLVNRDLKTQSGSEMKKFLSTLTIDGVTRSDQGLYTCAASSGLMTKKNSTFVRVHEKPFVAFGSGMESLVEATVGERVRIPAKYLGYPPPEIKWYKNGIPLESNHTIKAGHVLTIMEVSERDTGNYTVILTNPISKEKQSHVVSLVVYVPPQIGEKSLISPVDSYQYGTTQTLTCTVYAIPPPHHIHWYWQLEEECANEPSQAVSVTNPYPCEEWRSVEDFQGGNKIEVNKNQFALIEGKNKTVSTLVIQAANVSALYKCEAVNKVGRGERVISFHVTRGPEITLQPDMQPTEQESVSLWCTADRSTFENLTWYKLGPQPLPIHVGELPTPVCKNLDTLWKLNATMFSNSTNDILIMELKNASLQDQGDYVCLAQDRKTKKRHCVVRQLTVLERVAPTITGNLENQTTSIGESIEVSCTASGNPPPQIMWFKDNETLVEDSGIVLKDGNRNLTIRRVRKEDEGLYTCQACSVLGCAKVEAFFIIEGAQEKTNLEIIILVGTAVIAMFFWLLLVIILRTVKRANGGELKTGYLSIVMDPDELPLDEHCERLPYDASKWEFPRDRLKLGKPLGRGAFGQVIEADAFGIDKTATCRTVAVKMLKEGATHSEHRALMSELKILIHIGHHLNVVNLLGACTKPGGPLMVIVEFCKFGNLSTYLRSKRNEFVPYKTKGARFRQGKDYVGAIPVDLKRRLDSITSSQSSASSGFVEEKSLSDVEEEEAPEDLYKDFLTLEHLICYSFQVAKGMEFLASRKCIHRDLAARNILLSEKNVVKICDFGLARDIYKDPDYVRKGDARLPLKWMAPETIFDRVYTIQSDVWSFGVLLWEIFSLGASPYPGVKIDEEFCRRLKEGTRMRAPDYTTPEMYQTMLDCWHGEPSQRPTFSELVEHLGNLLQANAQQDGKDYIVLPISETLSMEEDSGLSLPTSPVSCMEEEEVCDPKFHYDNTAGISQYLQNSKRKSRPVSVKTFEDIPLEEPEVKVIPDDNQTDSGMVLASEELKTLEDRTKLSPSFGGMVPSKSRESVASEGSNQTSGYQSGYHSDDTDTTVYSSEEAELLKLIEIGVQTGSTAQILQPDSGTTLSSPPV

[4] = biological target: T4, Epidermal growth factor receptor (Homo sapiens, UniProt P00533); assay: Inhibition of EGFR after 30 mins by chemiluminescence ELISA
T4 sequence (P00533 whole entry): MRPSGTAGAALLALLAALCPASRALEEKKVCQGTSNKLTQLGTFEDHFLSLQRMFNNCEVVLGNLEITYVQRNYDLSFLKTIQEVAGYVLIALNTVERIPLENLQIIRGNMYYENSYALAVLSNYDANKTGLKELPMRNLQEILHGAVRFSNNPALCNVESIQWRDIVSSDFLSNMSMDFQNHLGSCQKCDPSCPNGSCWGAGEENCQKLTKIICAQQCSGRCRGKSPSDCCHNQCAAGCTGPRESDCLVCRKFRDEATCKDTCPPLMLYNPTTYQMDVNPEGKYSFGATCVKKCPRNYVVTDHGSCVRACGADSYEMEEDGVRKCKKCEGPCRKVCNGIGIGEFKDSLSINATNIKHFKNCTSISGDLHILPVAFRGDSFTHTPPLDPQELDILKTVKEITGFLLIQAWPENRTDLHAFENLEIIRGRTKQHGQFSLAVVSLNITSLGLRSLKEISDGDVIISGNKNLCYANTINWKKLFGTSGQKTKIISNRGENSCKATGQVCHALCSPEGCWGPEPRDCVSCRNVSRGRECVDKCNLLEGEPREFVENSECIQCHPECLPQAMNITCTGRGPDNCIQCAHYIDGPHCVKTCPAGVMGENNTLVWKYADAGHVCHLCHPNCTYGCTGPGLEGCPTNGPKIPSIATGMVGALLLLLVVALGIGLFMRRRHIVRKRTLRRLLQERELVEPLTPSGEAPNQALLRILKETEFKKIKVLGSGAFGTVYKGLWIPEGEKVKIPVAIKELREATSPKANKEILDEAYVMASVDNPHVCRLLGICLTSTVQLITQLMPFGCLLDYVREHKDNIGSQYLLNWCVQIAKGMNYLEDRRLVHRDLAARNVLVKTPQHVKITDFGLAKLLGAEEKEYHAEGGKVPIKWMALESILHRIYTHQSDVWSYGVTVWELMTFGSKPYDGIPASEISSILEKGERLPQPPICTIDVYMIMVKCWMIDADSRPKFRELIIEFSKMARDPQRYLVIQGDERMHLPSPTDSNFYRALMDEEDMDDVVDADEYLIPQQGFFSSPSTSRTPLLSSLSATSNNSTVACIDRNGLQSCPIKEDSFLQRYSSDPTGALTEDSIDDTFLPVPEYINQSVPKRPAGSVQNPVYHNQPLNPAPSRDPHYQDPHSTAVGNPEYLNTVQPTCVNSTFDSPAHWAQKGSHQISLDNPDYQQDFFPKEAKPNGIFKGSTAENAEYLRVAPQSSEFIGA

MCF7 [5] = assay: Cytotoxicity against human MCF7 cells after 24 hrs by WST1 assay; assay type: functional, cell-based; settings: MCF7, 24 h
HT-29 [6] = assay: Antiproliferative activity against human HT-29 cells assessed as BrdU incorporation into mitotic active cells after 24 hrs by luminometry; assay type: functional, cell-based; settings: HT-29, 24 h
HUVEC [7] = assay: Antiproliferative activity against HUVEC assessed as BrdU incorporation into mitotic active cells after 24 hrs by luminometry; assay type: cell-based; settings: Homo sapiens
MCF7 [8] = assay: Antiproliferative activity against human MCF7 cells assessed as BrdU incorporation into mitotic active cells after 24 hrs by luminometry; assay type: functional, cell-based; settings: MCF7, 24 h
[9] = biological target: T1, Vascular endothelial growth factor receptor 3; assay: Noncompetitive inhibition of VEGFR3 after 30 mins by chemiluminescence ELISA in presence of 50 uM ATP
[10] = biological target: T2, Insulin-like growth factor 1 receptor; assay: Noncompetitive inhibition of IGF1R after 30 mins by chemiluminescence ELISA in presence of 50 uM ATP
[11] = biological target: T1, Vascular endothelial growth factor receptor 3; assay: Noncompetitive inhibition of VEGFR3 after 30 mins by chemiluminescence ELISA in presence of 250 uM ATP
HT-29 [12] = assay: Cytotoxicity against human HT-29 cells after 24 hrs by WST1 assay; assay type: functional, cell-based; settings: HT-29, 24 h
[13] = biological target: T3, Vascular endothelial growth factor receptor 2; assay: Noncompetitive inhibition of VEGFR2 after 30 mins by chemiluminescence ELISA in presence of 25 uM ATP
[14] = Antiproliferative activity against HEPM cells assessed as BrdU incorporation into mitotic active cells after 24 hrs by luminometry; assay type: cell-based; settings: Homo sapiens
[15] = biological target: T3, Vascular endothelial growth factor receptor 2; assay: Noncompetitive inhibition of VEGFR2 after 30 mins by chemiluminescence ELISA in presence of 250 uM ATP
[16] = biological target: T4, Epidermal growth factor receptor
Description: Noncompetitive inhibition of EGFR after 30 mins by chemiluminescence ELISA in presence of 25 uM ATP

[17] = Cytotoxicity against HEPM cells after 24 hrs by WST1 assay; assay type: cell-based; settings: Homo sapiens
HUVEC [18] = assay: Cytotoxicity against HUVEC after 24 hrs by WST1 assay; assay type: cell-based; settings: Homo sapiens
[19] = biological target: T1, Vascular endothelial growth factor receptor 3; assay: Noncompetitive inhibition of VEGFR3 after 30 mins by chemiluminescence ELISA in presence of 25 uM ATP
[20] = biological target: T4, Epidermal growth factor receptor; remark: listed apart in the source
Description: Noncompetitive inhibition of EGFR after 30 mins by chemiluminescence ELISA in presence of 250 uM ATP

[21] = biological target: T4, Epidermal growth factor receptor; remark: listed apart in the source
Description: Noncompetitive inhibition of EGFR after 30 mins by chemiluminescence ELISA in presence of 50 uM ATP

[22] = biological target: T2, Insulin-like growth factor 1 receptor; assay: Noncompetitive inhibition of IGF1R after 30 mins by chemiluminescence ELISA in presence of 25 uM ATP
[23] = biological target: T3, Vascular endothelial growth factor receptor 2; assay: Noncompetitive inhibition of VEGFR2 after 30 mins by chemiluminescence ELISA in presence of 50 uM ATP
[24] = biological target: T2, Insulin-like growth factor 1 receptor; assay: Noncompetitive inhibition of IGF1R after 30 mins by chemiluminescence ELISA in presence of 250 uM ATP

T1 sequence (P35916 whole entry): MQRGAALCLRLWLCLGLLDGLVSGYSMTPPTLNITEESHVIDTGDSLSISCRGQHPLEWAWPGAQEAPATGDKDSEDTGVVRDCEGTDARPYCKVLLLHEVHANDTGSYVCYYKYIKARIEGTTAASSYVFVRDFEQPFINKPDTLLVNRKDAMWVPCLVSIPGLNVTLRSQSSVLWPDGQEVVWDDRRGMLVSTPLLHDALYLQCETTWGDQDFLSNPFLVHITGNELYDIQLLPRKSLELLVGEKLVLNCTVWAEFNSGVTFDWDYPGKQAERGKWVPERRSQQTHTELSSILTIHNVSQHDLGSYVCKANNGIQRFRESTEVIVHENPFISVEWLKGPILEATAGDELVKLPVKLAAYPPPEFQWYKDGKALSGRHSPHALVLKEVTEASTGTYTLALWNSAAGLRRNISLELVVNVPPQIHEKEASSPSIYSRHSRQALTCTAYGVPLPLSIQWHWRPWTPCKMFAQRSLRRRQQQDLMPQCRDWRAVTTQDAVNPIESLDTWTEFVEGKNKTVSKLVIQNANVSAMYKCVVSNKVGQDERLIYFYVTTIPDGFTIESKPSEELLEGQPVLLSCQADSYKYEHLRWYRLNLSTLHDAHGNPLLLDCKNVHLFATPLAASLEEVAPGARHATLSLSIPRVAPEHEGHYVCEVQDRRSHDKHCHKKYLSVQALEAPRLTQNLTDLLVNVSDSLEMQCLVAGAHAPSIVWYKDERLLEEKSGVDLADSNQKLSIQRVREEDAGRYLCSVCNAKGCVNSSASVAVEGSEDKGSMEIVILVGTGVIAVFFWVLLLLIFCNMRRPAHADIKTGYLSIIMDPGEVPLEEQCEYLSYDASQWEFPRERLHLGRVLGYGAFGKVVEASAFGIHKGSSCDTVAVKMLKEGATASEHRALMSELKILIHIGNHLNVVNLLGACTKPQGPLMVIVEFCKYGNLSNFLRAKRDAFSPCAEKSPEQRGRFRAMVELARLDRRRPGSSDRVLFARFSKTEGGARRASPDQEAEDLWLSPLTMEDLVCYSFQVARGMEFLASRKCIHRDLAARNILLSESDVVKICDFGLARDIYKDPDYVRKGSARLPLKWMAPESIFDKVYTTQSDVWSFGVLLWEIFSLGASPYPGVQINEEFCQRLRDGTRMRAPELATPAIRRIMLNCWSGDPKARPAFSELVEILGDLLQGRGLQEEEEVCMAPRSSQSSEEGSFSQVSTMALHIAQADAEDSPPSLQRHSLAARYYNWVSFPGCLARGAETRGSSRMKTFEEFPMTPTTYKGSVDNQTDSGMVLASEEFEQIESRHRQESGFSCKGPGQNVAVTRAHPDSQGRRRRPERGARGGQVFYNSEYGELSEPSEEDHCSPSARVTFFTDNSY

Compound	IC50 [1] [µM]	IC50 [2] [µM]	IC50 [3] [µM]	IC50 [4] [µM]	also measured
NC1CCc2c(c3cc(OCCc4ccc(O)cc4)ccc3n2CCCCCc2ccc(C(F)(F)F)cc2)C1 (stereo unspecified)	2.27	5.15	2.18	2.75	–
NC1CCc2c(c3cc(OCCc4ccc(O)cc4)ccc3n2CCCCCc2ccccc2)C1 (stereo unspecified)	2.17	0.93	1.06	1.01	IC50 (MCF7 [5]): 4.79 µM; IC50 (HT-29 [6]): 3.81 µM; IC50 (HUVEC [7]): 1.38 µM; IC50 (MCF7 [8]): 3.85 µM; IC50 [9]: 2.11 µM; IC50 [10]: 0.99 µM; IC50 [11]: 2.19 µM; IC50 (HT-29 [12]): 11 µM; IC50 [13]: 1.06 µM; IC50 [14]: 2.25 µM; IC50 [15]: 1.04 µM; IC50 [16]: 1.01 µM; IC50 [17]: 7.76 µM; IC50 (HUVEC [18]): 5.04 µM; IC50 [19]: 2.17 µM; IC50 [20]: 1 µM; IC50 [21]: 0.98 µM; IC50 [22]: 0.93 µM; IC50 [23]: 1.09 µM; IC50 [24]: 1.22 µM
NC1CCc2c(c3cc(OCCc4ccc(O)cc4)ccc3n2CCCCCc2ccccn2)C1 (stereo unspecified)	–	2.8	2.12	–	–
CSc1ccc(CCCCCn2cc(CCN)c3cc(OCCc4ccc(O)cc4)ccc32)cc1	2.53	2.25	1.22	1.92	–
NC1CCc2c(c3cc(OCCc4ccc(O)cc4)ccc3n2CCCc2ccccc2)C1 (stereo unspecified)	2.85	1.33	2.07	2.5	–
CSc1ccc(CCCCCn2cc(CCNC(=O)OC(C)(C)C)c3cc(OCCc4ccc(O)cc4)ccc32)cc1	> 50	> 50	> 50	> 50	–
NCCc1c[nH]c2ccc(O)cc12 [SEROTONIN HYDROCHLORIDE]	> 50	> 50	> 50	> 50	–
CN(C)c1ccc(CCCCCn2c3c(c4cc(OCCc5ccc(O)cc5)ccc42)CC(N)CC3)cc1 (stereo unspecified)	1.66	–	–	1.91	–
NC1CCc2[nH]c3ccc(OCCc4ccc(O)cc4)cc3c2C1 (stereo unspecified)	34.6	10.6	27.1	15.1	–
COc1ccc(CCCCCn2cc(CCN)c3cc(OCCc4ccc(O)cc4)ccc32)cc1	2.05	3.21	2.17	4.4	–
COc1ccc(-c2ccc(Cn3cc(CCN)c4cc(OCCc5ccc(O)cc5)ccc43)cc2)cc1	0.96	1.79	1.01	1.25	IC50 (MCF7 [5]): 4.93 µM; IC50 (HT-29 [6]): 4.86 µM; IC50 (HUVEC [7]): 0.75 µM; IC50 (MCF7 [8]): 4.79 µM; IC50 (HT-29 [12]): 8.5 µM; IC50 [14]: 2.53 µM; IC50 [17]: 5.7 µM; IC50 (HUVEC [18]): 3.45 µM
NCCc1cn(Cc2ccc(-c3cccc(C(F)(F)F)c3)cc2)c2ccc(OCCc3ccc(O)cc3)cc12	3.01	1.07	1.56	1.11	IC50 (MCF7 [5]): 3.34 µM; IC50 (HT-29 [6]): 4.38 µM; IC50 (HUVEC [7]): 1.98 µM; IC50 (MCF7 [8]): 3.57 µM; IC50 [9]: 2.98 µM; IC50 [10]: 1.06 µM; IC50 [11]: 3.08 µM; IC50 (HT-29 [12]): 7.95 µM; IC50 [13]: 1.56 µM; IC50 [14]: 2.74 µM; IC50 [15]: 1.5 µM; IC50 [16]: 1.11 µM; IC50 [17]: 6.64 µM; IC50 (HUVEC [18]): 6.32 µM; IC50 [19]: 3.01 µM; IC50 [20]: 1.06 µM; IC50 [21]: 1.12 µM; IC50 [22]: 1.07 µM; IC50 [23]: 1.48 µM; IC50 [24]: 1.02 µM
NCCc1c[nH]c2ccc(OCCc3ccc(O)cc3)cc12	2.64	1.78	2.03	2.07	–
NCCc1cn(Cc2ccc(-c3ccccc3)cc2)c2ccc(OCCc3ccc(O)cc3)cc12	4.07	2.36	1.17	1.3	–
COCCc1ccc(O)cc1	> 50	> 50	> 50	> 50	–
NCCc1cn(CCCCCc2ccccc2)c2ccc(OCCc3ccc(O)cc3)cc12	2.68	2.96	2.83	1.63	–
COc1ccc(CCCCCn2c3c(c4cc(OCCc5ccc(O)cc5)ccc42)CC(N)CC3)cc1 (stereo unspecified)	1.81	2.86	0.94	1.37	–
COc1ccc(CCOc2ccc3c(c2)c(CCN)cn3CCCCCc2ccc(SC)cc2)cc1	1.31	0.98	1.45	2.45	–
